Measurements reported in publication PMC11249646, “Small-Molecule Disruptors of the Interaction between Calcium- and Integrin-Binding Protein 1 and Integrin αIIbβ3 as Novel Antiplatelet Agents” (ACS Pharmacology & Translational Science, 2024).
Converted amounts (≈) assume the structure as drawn. Like-named read-outs stand apart in the source and are kept apart here.

Key:
[1] = biological target: T1, CIB1 and αIIb interaction (GST-CIB1 : F-αIIb peptide) (Homo sapiens, UniProt Q99828); assay: FP assay, 384-well format (screen); format: binding; set-up: 384-well SCREEN Efficacy (%): concentration or dose not given beside the values
T1 construct: made in house; host or cells: BL-21 plus RIL cells (E. coli)
T1 sequence (Q99828 1-191): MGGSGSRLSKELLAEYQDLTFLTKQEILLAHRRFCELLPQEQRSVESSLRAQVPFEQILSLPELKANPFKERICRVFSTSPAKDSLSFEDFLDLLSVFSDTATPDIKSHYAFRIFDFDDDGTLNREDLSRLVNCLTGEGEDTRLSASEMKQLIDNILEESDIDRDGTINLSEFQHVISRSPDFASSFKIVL

[2] = biological target: T2, CIB1 and αIIb interaction (CIB1-GST : F-αIIb peptide) (Homo sapiens, UniProt Q99828); assay: FP assay, 1536-well qHTS format (primary and confirmatory screen); format: binding; details: for Confirm? (confirmatory screen): YES/NO
T2 construct: made in house; host or cells: BL-21 plus RIL cells (E. coli)
T2 sequence (Q99828 1-191): T1 sequence (Q99828 1-191)

[3] = biological target: T3, GST-CIB1 : F-scrambled peptide (Homo sapiens, UniProt Q99828); assay: FP scrambled-peptide counter screen, 1536-well format; format: binding; details: for Curve Class (counterscreen): negative sign = inhibitory curve; for Efficacy (%) (counterscreen) / Curve Class (counterscreen) / IC50: counterscreen; for IC50: read-out: IC50 [μM] (counterscreen)
T3 construct: made in house; host or cells: BL-21 plus RIL cells (E. coli)
T3 sequence (Q99828 1-191): T1 sequence (Q99828 1-191)

[4] = test system: washed human platelets; assay: Human platelet aggregation assay (thrombin-induced); format: cell-based; details: for inhibition at 10 µM: Homo sapiens, Platelet, single concentration of 10 μM (n = 3), thrombin; for Thrombin Assay 10 µM (%): platelet aggregation inhibition at 10 µM
Excerpt: A classical challenge in target-based drug discovery is moving from biochemical to cellular assay and the essential step of determining if the compounds of interest can perform in a cellular context. After characterization of the compounds in a series of biochemical assay formats, our next step was to assess their activity in a cellular environment. Our previous studies have shown that the interaction of the cytoplasmic domain of integrin αIIbβ3, a key regulator of platelet aggregation, with CIB1, is involved in downstream signaling in platelet activation and aggregation. We sought to determine whether our candidate compounds were inhibiting this interaction by evaluating them for platelet function in a human platelet aggregation assay. We prepared platelet-rich plasma (PRP) and washed the platelets as previously described[44] and then performed a platelet aggregation assay using the washed platelet suspensions (2 × 10^8/platelets/mL) followed by the recording of aggregation traces (see Materials and Methods Section). To induce platelet aggregation, 0.03 U/mL of thrombin, a physiological agonist of platelet activation, was used.
Figure 6 Effect of compounds on human platelet activation. Representative platelet aggregation tracings of washed human platelet suspensions pretreated for 30 min at 37 °C with vehicle (DMSO) or compounds at indicated concentrations followed by activation with thrombin (0.03–0.1 U/mL). Panel (A): NCGC00071855. Panel (B–D): NCGC00351170. Panel (E): CD62P exposure was in the presence of NCGC00351170. Data represents mean ± SEM, n = 4 individual experiments; ns = non significant *P < 0.05, ***P < 0.001, ****P < 0.0001.
Whole blood was drawn by venipuncture from healthy adult volunteers (of both gender and race) with informed consent. Approval was obtained from the institutional review boards of Thomas Jefferson University, according to the Declaration of Helsinki. Blood was collected in acidified citrate dextrose as an anticoagulant. Platelet-rich plasma (PRP) and washed platelets were prepared, as previously described.[44] Platelet aggregation was performed using washed platelet suspensions containing 2 × 10^8 platelets/mL using a Chrono-Log Lumi-Aggregometer (Chrono-Log), as described previously.[11] Aggregation traces were recorded by using Aggrolink software (Chrono-Log). Thrombin-induced P-selectin (CD62P) exposure was performed using Accuri C6 flowcytometer (BD Bioscience) as described previously.[11]
Figure S9: Effect of compounds on human platelet activation. Representative platelet aggregation
tracings of washed human platelet suspensions treated with vehicle (DMSO) or indicated
compounds at 10 μM for 30 minutes at 37 °C followed by activation with thrombin (0.03U/mL).

[5] = In vitro ADME: solubility; format: physicochemical
[6] = In vitro ADME: PAMPA permeability
[7] = biological target: T3, GST-CIB1 : F-scrambled peptide; assay: FP scrambled-peptide counter screen, 384-well format; format: binding; details: F-scrambled peptide
[8] = biological target: T4, GST-CIB1:F-αIIb interaction (Homo sapiens, UniProt Q99828); assay: Gel-based (in-gel) binding assay; details: 1 μM GST-CIB1, 400 nM F-αIIb; 60 μM, 1:2, 4-points
T4 construct: made in house; host or cells: BL-21 plus RIL cells (E. coli)
T4 sequence (Q99828 1-191): T1 sequence (Q99828 1-191)

[9] = biological target: T5, GST-CIB1 : F-αIIb peptide (Homo sapiens, UniProt Q99828); assay: FP assay in the presence of glutathione (GSH), thiol reactivity; format: binding
T5 construct: made in house; host or cells: BL-21 plus RIL cells (E. coli)
T5 sequence (Q99828 1-191): T1 sequence (Q99828 1-191)

[10] = biological target: T6, CIB1 and αIIb peptide (Homo sapiens, UniProt Q99828); assay: Intrinsic tryptophan fluorescence (ITF) assay
T6 sequence (Q99828 1-191): T1 sequence (Q99828 1-191)

[11] = 384-well FP assay, Table 1, read-out: FP assay IC50
[12] = confirmatory screen, qHTS curve class, negative sign = inhibitory curve
[13] = confirmatory screen, read-out: IC50 [μM] (confirmatory screen)
[14] = qHTS FP screen hits, Table S2, negative = inhibition
[15] = qHTS FP screen hits, Table S2, read-out: IC50

Structure (SMILES) | IC50 [1, 11] [µM] | Efficacy (%) (confirmatory screen) ([2]; confirmatory screen) | Confirm? (confirmatory screen) ([2]; confirmatory screen) | Curve Class (confirmatory screen) [2, 12] | IC50 [2, 13] [µM] | Efficacy (%) [2, 14] [%] | IC50 [2, 15] [µM] | Efficacy (%) (counterscreen) [3] | Curve Class (counterscreen) ([3]; qHTS curve class) | IC50 [3] [µM] | inhibition at 10 µM [4] [%] | Thrombin Assay 10 µM (%) [4] [%] | solubility ([5]; read-out: Solubility) [µg/mL] | Papp [6] [×10⁻⁶ cm/s] | other results
COc1ccc(C(=O)c2no[n+]([O-])c2C(=O)c2ccc(OC)cc2)cc1.O=C(O)C(F)(F)F [NCGC00064079-03] | 4.53 | -37 | YES | -1.4 | 6.3 | -27 | 8.9 | -30 | -1.4 | 3.2 | 99 | 99 | 9 | 285 | 
O=C(O)C(F)(F)F.O=C(c1cccs1)c1no[n+]([O-])c1C(=O)c1cccs1 [NCGC00071855-05] |  |  |  |  |  |  |  |  |  |  |  |  | 18 | 187 | Efficacy (%) ([2]; qHTS primary screen hits, Table S2, negative = inhibition): -48%; Curve Class ([2]; qHTS primary screen hits, Table S2, negative sign = inhibitory curve, several classes where COUNT > 1): -1.2; IC50 ([2]; qHTS primary screen hits, Table S2, read-out: IC50): 11.6 µM
O=C(c1cccs1)c1no[n+]([O-])c1C(=O)c1cccs1 [NCGC00071855-06] |  |  |  |  |  |  |  |  |  |  |  |  |  |  | solubility [5]: 14 µg/mL (≈ 45.7 µM); PAMPA [6]: 153 10-6 cm/s
COc1ccc(CNC(=O)c2nc(S(=O)(=O)Cc3ccccc3)ncc2Cl)cc1.O=C(O)C(F)(F)F [NCGC00117170-03] |  |  |  |  |  | -38 | 2 |  |  |  |  |  |  |  | 384-well SCREEN Efficacy (%) ([1]; F-αIIb peptide): 56%; 384-well SCREEN Confirm? ([1]; F-αIIb peptide, YES/NO): YES; IC50 ([1]; F-αIIb peptide, read-out: 384-well SCREEN IC50): 7.1 µM; 384-well COUNTERSCREEN Efficacy (%) [7]: 17%; 384-well COUNTERSCREEN Confirm? ([7]; *: Curve in opposite direction): YES; IC50 ([7]; read-out: 384-well COUNTERSCREEN IC50): > 120 µM; CONFIRMATORY SCREEN Confirm? ([2]; confirmatory screen, YES/NO call): YES; CONFIRMATORY SCREEN Curve Class [2, 12]: -1.4; CONFIRMATORY SCREEN Efficacy (%) ([2]; confirmatory screen, negative = inhibition): -29%; IC50 ([2]; confirmatory screen, read-out: CONFIRMATORY SCREEN IC50): 12.6 µM; Curve Class ([2]; qHTS FP screen hits, Table S2, one class per curve where COUNT > 1, negative sign = inhibitory curve): -1.2; COUNTERSCREEN Efficacy (%) ([3]; scrambled-peptide counterscreen): -18%; COUNTERSCREEN Confirm? ([3]; scrambled-peptide counterscreen, YES/NO call): YES; COUNTERSCREEN Curve Class ([3]; scrambled-peptide counterscreen, qHTS curve class): 4; Active in Gel Assay? [8]: YES; IC50 ([9]; FP assay in the presence of glutathione (GSH +), read-out: GSH (+) Assay IC50): 4.1 µM; IC50 ([9]; FP assay without glutathione (GSH -), read-out: GSH (-) Assay IC50): 3.2 µM; GSH/CIB1 IC50 ratio ([9]; ratio of GSH (+) IC50 to GSH (-) IC50): 1.3; GSH Assay Result ([9]; thiol reactivity call: No change / Active): No change; ITF IC50 [10]: inactive
O=C(c1cccc(OCc2ccccc2)c1)c1no[n+]([O-])c1C(=O)c1cccc(OCc2ccccc2)c1 [NCGC00351160-01] | 20.7 |  |  |  |  |  |  |  |  |  | 49 | 49 | 5 (≈ 9.87 µM) | 5.74 | 
O=C(O)C(F)(F)F.O=C(c1ccc(F)cc1)c1no[n+]([O-])c1C(=O)c1ccc(F)cc1 [NCGC00351162-01] |  | -69 | YES | -1.2 | 12.6 |  |  | -68 | -2.2 | 35.5 |  |  | > 49 | 6.01 | 
